Residues, ends and D or L forms follow the SMILES beside them.
Experiments:
Hemolysis assay = type: cell-based, horse; settings: horse, erythrocytes (2% suspension); for hemolysis at 2 h: at the peptide's maximum MIC, relative to Triton X-100, read-out: Hemolysis under the Maximum MIC
Method: (§1) According to the procedures described in detail in a previous study, the debris and impurities of the erythrocytes were washed with PBS in advance to yield 2% of the erythrocyte suspension, and the drug concentration was diluted from 1024 µM to 2 µM with PBS [53]. The same amounts of the drug and the erythrocyte suspension were mixed and cultured at 37 °C for 2 h; 0.1% Triton X-100 (Sigma-Aldrich, St. Louis, MO, USA) was prepared as a positive control, and PBS was prepared as a negative control. After the incubation, the supernatant was transferred to a 96-well plate and then detected using a Synergy HT plate reader at 570 nm.

horse erythrocytes = assay: Hemolysis assay; type: cell-based; settings: for HC10 (10% hemolytic concentration) / HC50 (50% hemolytic concentration): erythrocytes, 37 °C, 2 h
Method: as §1

MRSA (NCTC 12493) = assay: Antimicrobial susceptibility assay (MIC/MBC); type: cell-based, methicillin-resistant Staphylococcus aureus; settings: for MIC: MHB, 37 °C, 20 h
Method: (§2) Six bacteria were tested in this experiment to detect the antimicrobial effects of crabrolin and its derivatives, including S. aureus (NCTC 10788), MRSA (NCTC 12493), E. coli (ATCC 8739), K. pneumoniae (ATCC 43816), E. faecium (NTCC-12697), and P. aeruginosa (ATCC 9027). The tested bacteria were cultured in Mueller Hinton broth medium (MHB) with norfloxacin (20 mg/L) as a positive control. All bacteria were incubated at 37 °C overnight and diluted to 5 × 10^5 CFU/mL before treating with the peptides. Stock solutions of 51,200 µM peptides were prepared in phosphate-buffered saline (PBS) and further diluted by a factor of two to 100 µM. Next, 1 µL of each peptide solution was mixed with 99 µL of bacterial subculture in a 96-well plate, and the plate was incubated at 37 °C for 20 h. After culturing, the absorbance of each well in the 96-well plate was analyzed at 550 nm using a Synergy HT plate reader (BioliseBioTek, Winooski, VT, USA). […] Starting with the MIC value, 10 µL of the solution from each well was dripped onto Mueller Hinton agar (MHA) plates. The plates were cultured at 37 °C for 20 h. After culturing, the lowest concentration with no colony growth was regarded as the MBC.

[1] = test system: E. faecium (NTCC12697) biofilm; type: cell-based, Enterococcus faecium; settings: for MBIC: biofilm inhibitory rate more than 90%; for MBEC: eradication rate greater than 99.9%
Method: To measure the antibiofilm activity of crabrolin and its derivatives, four drug-resistant biofilm-forming strains, MRSA (NCTC 12493), K. pneumoniae (ATCC 43816), E. faecium (NTCC-12697), and P. aeruginosa (ATCC 9027), were used in this assay. Tryptic soy broth (TSB) (for the Gram-positive bacteria) and Luria–Bertani broth (LB) (for the Gram-negative bacteria) were used to culture the bacteria.
The mass of the biofilm in this assay was detected by the crystal violet staining method. First, 100 μL of 5 × 10^5 CFU/mL bacteria was incubated with 1 μL of different peptide solutions (ranging from 51200 μM to 100 μM) for 24 h at 37 °C with 200 rpm shaking. After the biofilm formation, 100 μL of PBS was used to rinse the biofilm twice. Next, 100 µL of methanol was added to fix the biofilm, and the biofilm was then dried. Thereafter, 100 μL of 0.1% crystal violet was added and left to stain for 15 min, and then the excess crystal violet was further rinsed by PBS. After the plate had air-dried, 30% glacial acetic acid was added to each well of the plate, and the plate was shaken for 15 min before the optical density (OD) value was measured at 595 nm using a Synergy HT plate reader. The MBIC value refers to the minimum concentration at which the biofilm inhibitory rate was more than 90%.
Different from measuring the MBIC value, to determine the MBEC value, 100 μL of the bacteria was first added to 96-well plates. After the biofilm was formed, the biofilm was rinsed with PBS twice to remove the planktonic cells, and then different concentrations of the drugs were added to the biofilm (the same as the MBIC assay). The mixture was incubated at 37 °C with shaking at 200 rpm. After 24 h of incubation, the mass of the biofilm was measured in the same way as the MBIC value, and the minimum concentration at which the eradication rate was greater than 99.9% was considered to be the MBEC value.

[2] = test system: human breast cancer cell line MCF-7; assay: Anti-proliferative assay (MTT); type: cell-based; settings: MCF-7, MTT, 24 h
[3] = test system: human prostate carcinoma cell line PC-3; assay: Anti-proliferative assay (MTT); type: cell-based; settings: PC3, MTT, 24 h
[4] = test system: human non-small-cell lung cancer line H838; assay: Anti-proliferative assay (MTT); type: cell-based; settings: 24 h
E. coli (ATCC 8739) = assay: Antimicrobial susceptibility assay (MIC/MBC); type: cell-based, Escherichia coli; settings: for MIC: MHB, 37 °C, 20 h
Method: as §2

S. aureus (NCTC 10788) = assay: Antimicrobial susceptibility assay (MIC/MBC); type: cell-based, Staphylococcus aureus; settings: for MIC: MHB, 37 °C, 20 h
Method: as §2

SMILES	hemolysis at 2 h (Hemolysis assay) [%]	HC10 (10% hemolytic concentration) (horse erythrocytes) [µM]	HC50 (50% hemolytic concentration) (horse erythrocytes) [µM]	MBC (MRSA (NCTC 12493)) [µM]	MIC (MRSA (NCTC 12493)) [µM]	MBIC [1] [µM]	MBEC [1] [µM]	IC50 [2] [µM]	IC50 [3] [µM]	IC50 [4] [µM]	MBC (E. coli (ATCC 8739)) [µM]	MIC (E. coli (ATCC 8739)) [µM]	MBC (S. aureus (NCTC 10788)) [µM]	MIC (S. aureus (NCTC 10788)) [µM]	other results
CC[C@H](C)[C@H](NC(=O)[C@H](CC(C)C)NC(=O)[C@@H]1CCCN1C(=O)[C@H](CC(C)C)NC(=O)[C@@H](N)Cc1ccccc1)C(=O)N[C@@H](CC(C)C)C(=O)N[C@@H](CCCNC(=N)N)C(=O)N[C@@H](CCCCN)C(=O)N[C@H](C(=O)N[C@H](C(=O)N[C@H](C(=O)N[C@@H](C)C(=O)N[C@@H](CC(C)C)C(N)=O)[C@@H](C)O)C(C)C)[C@@H](C)CC [Crabrolin, FLPLILRKIVTAL-NH2] (H-FLPLILRKIVTAL-NH2)	53.5	34.575	120.654	8	4	32	> 512	26.5	32.1	27.7	128	32	4	2	Hemolytic activity (horse erythrocytes; 256 µM): 100%; MIC (MRSA (NCTC 12493); listed as crabrolin): 8 µM
CC[C@H](C)[C@H](NC(=O)[C@H](CCCNC(=N)N)NC(=O)[C@@H]1CCCN1C(=O)[C@H](CC(C)C)NC(=O)[C@@H](N)Cc1ccccc1)C(=O)N[C@@H](CC(C)C)C(=O)N[C@@H](CCCNC(=N)N)C(=O)N[C@@H](CCCCN)C(=O)N[C@H](C(=O)N[C@H](C(=O)N[C@@H](CCCNC(=N)N)C(=O)N[C@@H](C)C(=O)N[C@@H](CC(C)C)C(N)=O)C(C)C)[C@@H](C)CC [Crabrolin-TR, FLPRILRKIVRAL-NH2] (H-FLPRILRKIVRAL-NH2)	3.76	36.041	211.927	2	2	16	> 512	3.46	3.94	4.64	4	2	2	1	hemolysis at 2 h, 100 µM (Hemolysis assay; 100 μM): ~50%; Hemolysis (horse erythrocytes; 8 μM): neither crabrolin-TR nor crabrolin21 caused hemolysis; IC50 ([2]; listed as crabrolin-TR): < 10 µM; IC50 ([3]; listed as crabrolin-TR): < 10 µM; IC50 ([4]; listed as crabrolin-TR): < 10 µM

Source: paper PMC10572522, “A Designed Analog of an Antimicrobial Peptide, Crabrolin, Exhibits Enhanced Anti-Proliferative and In Vivo Antimicrobial Activity” (International Journal of Molecular Sciences, 2023)
